Target: T1, ΔF508 mutant CFTR (Homo sapiens, UniProt P13569, DEL508-508)
T1 construct: expressed in transfected cells; host or cells: Fischer rat thyroid (FRT) cells, co-expressing the halide-sensitive YFP-H148Q/I152L
Assay: Fluorescence Assay of ΔF508 mutant CFTR activity (halide-sensitive YFP quenching by iodide influx in FRT cells)
Type: cell-based
Parameters: key: fold of mean activity with forskolin alone (I− quenching rate)
Conditions: test compounds 20 μM with forskolin 20 μM, 20 min; FRT cells expressing ΔF508-CFTR and YFP-H148Q/I152L, incubated at 27° C. 20-24 h; rate of fluorescence quenching by I−, normalized to mean activity with forskolin alone
Excerpt: The ΔF508 mutant CFTR activities of the CFTR modulators are detected using the Fluorescence Assay developed by Pedemonte (Pedemonte N., et al., Antihypertensive 1,4-dihydropyridines as correctors of the cystic fibrosis transmembrane conductance regulator channel gating defect caused by cystic fibrosis mutations, Mol. Pharmacol., 2005, 68, 1736-1746).
Fischer rat thyroid (FRT) cells, stably transfected with ΔF508 were retransfected with the YFP-H148Q/I152L fluorescent protein. The cells were plated (100,000 cells/well) on black 96-well microplates with clear plastic bottom (Corning Life Sciences, Acton, Mass.).
The 96-well microplates containing FRT cells expressing F508-CFTR and the halide-sensitive YFP were incubated at 27° C. for 20 to 24 h to allow rescue of the mutant protein to the plasma membrane. After incubation, cells were washed with PBS (containing 137 mM NaCl, 2.7 mM KCl, 8.1 mM Na2HPO4, 1.5 mM KH2PO4, 1 mM CaCl2, and 0.5 mM MgCl2) and stimulated for 20 min with forskolin (20 μM) and test compounds (20 μM) in a final volume of 60 μl. Microplates were then transferred to a microplate reader for CFTR activity determination. Each assay consisted of a continuous 14-s fluorescence reading (5 points per second) with 2 s before and 12 s after injection of 165 μl of an iodide-containing solution (PBS with Cl^− replaced by I^−). Final iodide concentration in the wells was 100 mM. […] To determine I^− influx rate, the final 11 s of the data for each well were fitted with an exponential function to extrapolate initial slope. CFTR activity was determined by measuring the rate of fluorescence quenching induced by extracellular addition of I^−. Data are normalized to the mean activity measured in the presence of forskolin alone.

T1 sequence (P13569 with tags, fused parts or gaps DEL508-508): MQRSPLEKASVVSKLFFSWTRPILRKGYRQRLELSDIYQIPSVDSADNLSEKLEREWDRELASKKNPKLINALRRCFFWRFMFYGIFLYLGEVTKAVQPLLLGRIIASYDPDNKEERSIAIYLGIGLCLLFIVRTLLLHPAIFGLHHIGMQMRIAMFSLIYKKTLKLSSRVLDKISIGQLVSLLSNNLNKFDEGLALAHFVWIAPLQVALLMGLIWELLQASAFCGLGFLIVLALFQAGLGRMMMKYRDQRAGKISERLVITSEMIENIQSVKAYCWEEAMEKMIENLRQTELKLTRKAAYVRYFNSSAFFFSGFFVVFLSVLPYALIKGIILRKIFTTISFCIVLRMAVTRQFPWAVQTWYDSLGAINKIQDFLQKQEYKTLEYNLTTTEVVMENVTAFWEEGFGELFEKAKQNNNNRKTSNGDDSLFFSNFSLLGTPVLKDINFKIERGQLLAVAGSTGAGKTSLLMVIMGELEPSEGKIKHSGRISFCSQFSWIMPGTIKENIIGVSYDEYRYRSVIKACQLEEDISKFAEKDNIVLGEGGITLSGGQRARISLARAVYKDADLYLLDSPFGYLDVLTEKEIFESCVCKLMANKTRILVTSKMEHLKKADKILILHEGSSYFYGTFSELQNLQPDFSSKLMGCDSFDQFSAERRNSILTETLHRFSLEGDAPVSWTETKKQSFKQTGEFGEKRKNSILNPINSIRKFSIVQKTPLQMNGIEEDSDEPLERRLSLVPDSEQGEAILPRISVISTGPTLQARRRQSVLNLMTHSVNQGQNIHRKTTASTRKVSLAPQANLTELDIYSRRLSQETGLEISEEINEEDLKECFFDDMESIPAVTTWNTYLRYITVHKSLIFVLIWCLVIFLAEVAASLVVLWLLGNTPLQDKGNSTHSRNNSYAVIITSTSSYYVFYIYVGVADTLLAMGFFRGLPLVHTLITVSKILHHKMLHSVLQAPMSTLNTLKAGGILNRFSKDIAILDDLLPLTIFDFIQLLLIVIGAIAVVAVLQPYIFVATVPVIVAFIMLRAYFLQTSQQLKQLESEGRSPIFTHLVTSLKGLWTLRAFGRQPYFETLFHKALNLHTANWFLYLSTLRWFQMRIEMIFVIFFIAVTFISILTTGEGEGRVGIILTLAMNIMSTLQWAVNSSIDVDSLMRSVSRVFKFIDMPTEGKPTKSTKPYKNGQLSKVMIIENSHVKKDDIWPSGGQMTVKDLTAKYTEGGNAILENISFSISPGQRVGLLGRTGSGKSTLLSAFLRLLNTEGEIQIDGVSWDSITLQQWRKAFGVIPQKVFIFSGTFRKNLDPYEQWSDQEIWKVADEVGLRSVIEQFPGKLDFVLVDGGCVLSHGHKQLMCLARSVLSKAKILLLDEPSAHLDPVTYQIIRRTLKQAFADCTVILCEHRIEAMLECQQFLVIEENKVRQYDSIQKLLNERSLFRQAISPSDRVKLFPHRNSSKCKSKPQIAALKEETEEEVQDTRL

Row | SMILES | CFTR Activity
1 | Cl.Nc1cc(C(F)(F)F)c(-c2c(F)cccc2F)nc1C(=O)Nc1cnccc1O[C@H]1CC[C@H](N)CC1 [Example 52] | 5.4
2 | Cl.O=C(Nc1cnccc1OCC1CCNCC1)c1ccc(C(F)(F)F)c(-c2c(F)cccc2F)n1 [Example 43, 6-(2,6-difluorophenyl)-N-(4-(piperidin-4-ylmethoxy)pyridin-3-yl)-5-(trifluoromethyl)picolinamide hydrochloride] | 2.3

— patent US10174002B2, “Pyridine derivatives as CFTR modulators” (NuBridge BioSciences, priority 2015, dated 2019)
